In patent publication US8163768B2, “1,4-dihydropyridine-fused heterocycles, process for preparing the same, use and compositions containing them” (Aventis Pharma S.A.., priority 2005, dated 2012) one finds IC50 data, which are given here for 21 compounds.

The structures appear in SMILES notation.

The target in assay [1] is T1, Aurora1 (Aurora-B) (Homo sapiens, UniProt Q96GD4).
T1 construct: Aurora-B: the full length protein (His tagged in N-terminal) has been co expressed in SF9 cells; poly-histidine (N); made in house; host or cells: SF9 cells
T1 sequence (Q96GD4 whole entry, species assumed): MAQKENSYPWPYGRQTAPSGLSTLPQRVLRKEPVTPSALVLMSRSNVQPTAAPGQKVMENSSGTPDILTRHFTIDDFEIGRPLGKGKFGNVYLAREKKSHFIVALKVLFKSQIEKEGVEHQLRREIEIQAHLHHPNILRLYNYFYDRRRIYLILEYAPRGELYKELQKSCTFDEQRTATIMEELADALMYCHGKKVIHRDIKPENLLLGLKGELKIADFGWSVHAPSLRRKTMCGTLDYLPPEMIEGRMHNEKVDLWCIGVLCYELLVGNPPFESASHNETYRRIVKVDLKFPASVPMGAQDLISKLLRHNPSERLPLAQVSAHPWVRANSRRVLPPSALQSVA
T1 sequence (Q9NQS7 821-918 partner limits assumed, species assumed): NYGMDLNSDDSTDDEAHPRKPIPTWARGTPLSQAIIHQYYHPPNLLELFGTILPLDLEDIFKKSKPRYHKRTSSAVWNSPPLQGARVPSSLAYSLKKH
The assay can be described thus: Aurora 1 (Aurora B) kinase radioactivity scintillation assay using nickel chelate Flash plates. The assay is classed as biochemical. The note with it: 10 nM Aurora-B (co expressed with C3 fragment of INCEP), 500 nM NuMA substrate, 1 μM ATP with [33P] ATP, 5 mM MgCl2, 30 minutes, 37° C. As for the experimental part:
(§1) Aurora 1 and 2 (Respectively. Aurora B and A)
(§2) The inhibitory effect of compounds with respect to the Aurora 1 and 2 kinases is determined with a radioactivity scintillation assay using nickel chelate.
(§3) The kinase activity of Aurora is measured by the phosphorylation of NuMA-histidine substrate in the presence of radiolabelled ATP ([^33P] ATP) using 96 well Flash plates where the nickel-chelate is linked to the surface of the microplate. The amount of ^33P incorporated to the substrate NuMA is proportional to the aurora activity.
(§4) The Flash plates used are nickel-chelate 96 well plates (Perkin Elmer, model SMP107).
(§5) The products to be evaluated are incubated in a 100 μl reaction volume per well in the presence of 10 nM of Aurora-B or Aurora-A, 500 nM of NuMA substrate in the following buffer: 50 mM of NaCl, 5 mM MgCl2, (Aurora-B) or 10 mM MgCl2 (Aurora-A) and 1 mM of DTT at 37° C.
(§6) 80 μL of enzyme/substrate incubation buffer is distributed in each well, followed by 10 μL of solution of compound to be measured with various concentrations. The reaction is started by adding 1 μM of ATP (final concentration) containing 0.2 μCi of [^33P] ATP (10 μL). After 30 minutes of incubation the reaction is stopped by removal of the reaction mixture and each well is washed twice with 300 μl of buffer Tris/HCl. The radioactivity is measured in each well using a Packard Top count scintillation counter instrument.
(§7) The enzymatic activity is expressed as counts per minute obtained in 30 minutes after subtraction of the background noise (reaction medium without enzyme). The measurement is expressed as percentage of inhibition of Aurora activity versus the control. To generate IC50 values, compounds of the invention are tested at different concentration and the percentage of inhibition are plotted as function of compound concentration, IC50s are calculated using the Xlfit 4 curve fitting software.

Assay [2] addresses T2, Aurora2 (Aurora-A) (Homo sapiens, UniProt O14965).
T2 construct: Aurora-A: the full length recombinant protein including an N-terminal poly-histidine tail has been expressed in E. coli; poly-histidine (N); made in house; host or cells: E. coli
T2 sequence (O14965 1-403): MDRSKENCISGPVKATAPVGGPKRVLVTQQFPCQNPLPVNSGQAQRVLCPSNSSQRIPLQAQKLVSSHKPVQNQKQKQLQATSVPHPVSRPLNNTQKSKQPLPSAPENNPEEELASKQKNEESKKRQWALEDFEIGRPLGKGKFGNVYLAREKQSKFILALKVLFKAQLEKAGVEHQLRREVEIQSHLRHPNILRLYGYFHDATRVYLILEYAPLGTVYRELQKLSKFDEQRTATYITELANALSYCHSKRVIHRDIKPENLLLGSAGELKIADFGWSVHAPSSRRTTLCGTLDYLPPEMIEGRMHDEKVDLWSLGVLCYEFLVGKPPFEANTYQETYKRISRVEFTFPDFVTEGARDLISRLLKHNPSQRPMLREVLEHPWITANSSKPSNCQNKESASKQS
The assay can be described thus: Aurora 2 (Aurora A) kinase radioactivity scintillation assay using nickel chelate Flash plates. The note with it: 10 nM Aurora-A, 500 nM NuMA substrate, 1 μM ATP with [33P] ATP, 10 mM MgCl2, 30 minutes, 37° C. The assay is classed as biochemical. How it is done:
as §1, §2, §3, §4, §5, §6, §7

For `O=C1CCCC2=C1[C@H](c1ccc(Sc3nc4ccccc4[nH]3)o1)c1c[nH]nc1N2` (single isomer, unassigned) [120a (+), 4-[5-(1H-Benzimidazol-2-ylsulfanyl)-furan-2-yl]-1,4,6,7,8,9-hexahydro-pyrazolo[3,4-b]quinolin-5-one], in assay [1], the IC50 (in general, the concentration that gives 50% inhibition) came to 4 nM.

With `O=C1CCCC2=C1[C@H](c1ccc(Sc3nc4ccccc4[nH]3)o1)c1c[nH]nc1N2` (single isomer, unassigned) [120b (−), 4-[5-(1H-Benzimidazol-2-ylsulfanyl)-furan-2-yl]-1,4,6,7,8,9-hexahydro-pyrazolo[3,4-b]quinolin-5-one], the IC50 in assay [1] was 75 nM.

On to `O=C1CCCC2=C1C(c1ccc(Sc3nc4ccccc4[nH]3)o1)c1cn[nH]c1N2` (stereo not shown) [Example 3, 4-[5-(1H-Benzimidazol-2-ylsulfanyl)-furan-2-yl]-1,4,6,7,8,9-hexahydro-pyrazolo[3,4-b]quinolin-5-one], for which the IC50 in assay [1] stood at 8 nM.

As to `CC1(C)CC(=O)C2=C(C1)Nc1n[nH]cc1C2c1ccc(Sc2nc3ccccc3[nH]2)o1` (stereo not shown) [Example 4, 4-[5-(1H-Benzimidazol-2-ylsulfanyl)-furan-2-yl]-7,7-dimethyl-2,4,6,7,8,9-hexahydro-pyrazolo[3,4-b]quinolin-5-one], the IC50 was found to be 15 nM in assay [2] and 4 nM in assay [1].

Regarding `O=C1CNCC2=C1C(c1ccc(Sc3nc4ccccc4[nH]3)o1)c1c[nH]nc1N2` (stereo not shown) [Example 20, 4-[5-(1H-Benzimidazol-2-ylsulfanyl)-furan-2-yl]-2,4,6,7,8,9-hexahydro-pyrazolo[3,4-b]-1,7-naphthyridin-5-one; compound with trifluoro-acetic acid], the IC50 in assay [1] came out at 83 nM.

In the case of `CC1CC(=O)C2=C(C1)Nc1n[nH]cc1C2c1ccc(Sc2nc3ccccc3[nH]2)o1` (stereo not shown) [Example 28, 4-[5-(1H-Benzimidazol-2-ylsulfanyl)-furan-2-yl]-7-methyl-2,4,6,7,8,9-hexahydro-pyrazolo[3,4-b]quinolin-5-one; compound with trifluoro-acetic acid], the figures for the IC50 in assay [2] and in assay [1] were 17 nM and 5 nM, respectively.

Take `O=C1CC(c2ccccc2)CC2=C1C(c1ccc(Sc3nc4ccccc4[nH]3)o1)c1c[nH]nc1N2` (stereo not shown) [Example 29, 4-[5-(1H-Benzimidazol-2-ylsulfanyl)-furan-2-yl]-7-phenyl-2,4,6,7,8,9-hexahydro-pyrazolo[3,4-b]quinolin-5-one; compound with trifluoro-acetic acid]: the IC50 came out at 100 nM in assay [2] and 36 nM in assay [1].

Take `CC1(C)CCC2=C(C1=O)C(c1ccc(Sc3nc4ccccc4[nH]3)o1)c1c[nH]nc1N2` (stereo not shown) [Example 30, 4-[5-(1H-Benzimidazol-2-ylsulfanyl)-furan-2-yl]-6,6-dimethyl-2,4,6,7,8,9-hexahydro-pyrazolo[3,4-b]quinolin-5-one; compound with trifluoro-acetic acid]: the IC50 was determined as 20 nM in assay [2] and 5 nM in assay [1].

In the case of `CC(C)C1CC(=O)C2=C(C1)Nc1n[nH]cc1C2c1ccc(Sc2nc3ccccc3[nH]2)o1` (stereo not shown) [Example 31, 4-[5-(1H-Benzimidazol-2-ylsulfanyl)-furan-2-yl]-7-isopropyl-2,4,6,7,8,9-hexahydro-pyrazolo[3,4-b]quinolin-5-one; compound with trifluoro-acetic acid], the IC50 in assay [2] was 14 nM; in assay [1] it was 4 nM.

As for `COc1ccc(C2CC(=O)C3=C(C2)Nc2n[nH]cc2C3c2ccc(Sc3nc4ccccc4[nH]3)o2)cc1` (stereo not shown) [Example 32, 4-[5-(1H-Benzimidazol-2-ylsulfanyl)-furan-2-yl]-7-(4-methoxy-phenyl)-2,4,6,7,8,9-hexahydro-pyrazolo[3,4-b]quinolin-5-one; compound with trifluoro-acetic acid], the figures for the IC50 in assay [2] and in assay [1] were 125 nM and 50 nM, respectively.

For `O=C1CC(c2ccc(Cl)cc2Cl)CC2=C1C(c1ccc(Sc3nc4ccccc4[nH]3)o1)c1c[nH]nc1N2` (stereo not shown) [Example 33, 4-[5-(1H-Benzimidazol-2-ylsulfanyl)-furan-2-yl]-7-(2,4-dichloro-phenyl)-2,4,6,7,8,9-hexahydro-pyrazolo[3,4-b]quinolin-5-one; compound with trifluoro-acetic acid], the IC50 in assay [2] worked out at 179 nM; in assay [1], 32 nM.

Turning to `O=C1CCCC2=C1C(c1ccc(Sc3ccccn3)o1)c1c[nH]nc1N2` (stereo not shown) [Example 40], in assay [1], the IC50 amounted to 3400 nM.

With `Cn1c(Sc2ccc(C3C4=C(CNCC4=O)Nc4n[nH]cc43)o2)nc2ccccc21` (stereo not shown) [Example 83, 4-[5-(1-Methyl-1H-benzimidazol-2-ylsulfanyl)-furan-2-yl]-2,4,6,7,8,9-hexahydro-pyrazolo[3,4-b]-1,7-naphthyridin-5-one; compound with trifluoro-acetic acid], the IC50 in assay [1] is 5020 nM.

Take `CCOC(=O)c1[nH]cc2c1NC1=C(C(=O)CNC1)C2c1ccc(Sc2nc3ccccc3[nH]2)o1` (stereo not shown) [Example 104, 9-[5-(1H-Benzimidazol-2-ylsulfanyl)-furan-2-yl]-8-oxo-4,5,6,7,8,9-hexahydro-2H-pyrrolo[3,4-b]-1,7-naphthyridine-3-carboxylic acid ethyl ester; compound with trifluoro-acetic acid]: the IC50 in assay [1] was 7 nM.

With `CCOC(=O)c1[nH]cc2c1NC1=C(C(=O)CC(C)(C)C1)C2c1ccc(Sc2nc3ccccc3[nH]2)o1` (stereo not shown) [Example 106, 9-[5-(1H-Benzimidazol-2-ylsulfanyl)-furan-2-yl]-6,6-dimethyl-8-oxo-4,5,6,7,8,9-hexahydro-2H-pyrrolo[3,4-b]quinoline-3-carboxylic acid ethyl ester], in assay [1], the IC50 came out at 31 nM.

On to `CCOC(=O)c1[nH]cc2c1NC1=C(C(=O)CCC1)C2c1ccc(Sc2nc3cc(F)c(F)cc3[nH]2)o1` (stereo not shown) [Example 114, 9-[5-(5,6-Difluoro-1H-benzimidazol-2-ylsulfanyl)-furan-2-yl]-8-oxo-4,5,6,7,8,9-hexahydro-2H-pyrrolo[3,4-b]quinoline-3-carboxylic acid ethyl ester], for which the IC50 in assay [1] worked out at 6 nM.

In the case of `CCOC(=O)c1[nH]cc2c1NC1=C(C(=O)CCC1)C2c1ccc(Sc2nc3ccc(F)c(F)c3[nH]2)o1` (stereo not shown) [Example 121, 9-[5-(6,7-Difluoro-1H-benzimidazol-2-ylsulfanyl)-furan-2-yl]-8-oxo-4,5,6,7,8,9-hexahydro-2H-pyrrolo[3,4-b]quinoline-3-carboxylic acid ethyl ester], the IC50 in assay [1] came to 7 nM.

For the compound `CCOC(=O)c1[nH]cc2c1NC1=C(C(=O)CCC1)C2c1ccc(Sc2nc3c(F)c(F)c(F)cc3[nH]2)o1` (stereo not shown) [Example 122, 8-Oxo-9-[5-(4,5,6-trifluoro-1H-benzimidazol-2-ylsulfanyl)-furan-2-yl]-4,5,6,7,8,9-hexahydro-2H-pyrrolo[3,4-b]quinoline-3-carboxylic acid ethyl ester], the IC50 in assay [1] was determined as 7 nM.

Turning to `CCOC(=O)c1[nH]cc2c1NC1=C(C(=O)CCC1)C2c1ccc(Sc2nc3cc(Cl)ccc3[nH]2)o1` (stereo not shown) [Example 129, 9-[5-(5-Chloro-1H-benzimidazol-2-ylsulfanyl)-furan-2-yl]-8-oxo-4,5,6,7,8,9-hexahydro-2H-pyrrolo[3,4-b]quinoline-3-carboxylic acid ethyl ester], the IC50 in assay [1] is 10 nM.

On to `CCOC(=O)c1[nH]cc2c1NC1=C(C(=O)CCC1)C2c1ccc(Sc2nc3c(F)cc(F)cc3[nH]2)o1` (stereo not shown) [Example 142, 9-[5-(4,6-Difluoro-1H-benzimidazol-2-ylsulfanyl)-furan-2-yl]-8-oxo-4,5,6,7,8,9-hexahydro-2H-pyrrolo[3,4-b]quinoline-3-carboxylic acid ethyl ester], for which the IC50 in assay [1] stood at 3 nM.

`CCOC(=O)c1[nH]cc2c1NC1=C(C(=O)CCC1)C2c1ccc(Sc2nc3cc(F)ccc3[nH]2)o1` (stereo not shown) [Example 148, 9-[5-(5-Fluoro-1H-benzimidazol-2-ylsulfanyl)-furan-2-yl]-8-oxo-4,5,6,7,8,9-hexahydro-2H-pyrrolo[3,4-b]quinoline-3-carboxylic acid ethyl ester]: the IC50 in assay [1] is 11 nM.
